Experimental data taken from patent US5281596A, “Antibacterial drugs for fish” (Bayer Aktiengesellschaft, priority 1986, dated 1994).
In brackets after ≈: the same amount, converted by molar mass. Counter-ions that a name gives are not always drawn. Like-named read-outs stand apart in the source and are kept apart here.

Experiments:
Assay in all cases: In vitro antibacterial activity on pathogenic bacteria for fish (agar MIC, Test Example 1)
Assay type in all cases: cell-based
Vibrio anguillarum = details: 20 h, 25-30 °C; for MIC (minimum growth-inhibition concentration): Mueller-Hinton agar; for MIC: Vibrio anguillarum, read-out: MIC (minimum growth-inhibition concentration)
Procedure: (§1) In vitro antibacterial activity on pathogenic-bacteria for fish
(§2) Each of the test strains was cultured over-night, and each culture broth (containing about 10^6 cells/ml) was innoculated in Mueller-Hinton agar (DIFCO) supplied with 1.0-2.0% sodium chloride and containing the test compound at each specified concentration.

Aeromonas hydrophila = details: 20 h; for MIC (minimum growth-inhibition concentration): Mueller-Hinton agar; for MIC: Aeromonas hydrophila
Procedure: as §1, §2

Pasteurella piscicida = details: 20 h; for MIC (minimum growth-inhibition concentration): Mueller-Hinton agar; for MIC: Photobacterium damselae
Procedure: as §1, §2

[1] = Vibrio anguillarum strain NA8340
[2] = Vibrio anguillarum strain NA8341
[3] = Vibrio anguillarum strain NA8346
[4] = Vibrio anguillarum strain NA8347
[5] = Vibrio anguillarum strain NH8410
[6] = Aeromonas hydrophila strain C 44, 25-30 °C
[7] = Aeromonas hydrophila strain KA8301, 25-30 °C
[8] = Aeromonas hydrophila strain KA8414, 25-30 °C
[9] = Aeromonas hydrophila strain KA8416, 25-30 °C
[10] = Aeromonas hydrophila strain M 183, 25-30 °C
[11] = Pasteurella piscicida strain EH8304, 25-30 °C
[12] = Pasteurella piscicida strain EH8309, 25-30 °C
[13] = Pasteurella piscicida strain EH8312, 25-30 °C
[14] = Pasteurella piscicida strain EH8313, 25-30 °C
[15] = Pasteurella piscicida strain NG8319, 25-30 °C
[16] = Vibrio anguillarum strain NA8340, Mueller-Hinton agar
[17] = Vibrio anguillarum strain NA8341, Mueller-Hinton agar
[18] = Vibrio anguillarum strain NA8346, Mueller-Hinton agar
[19] = Vibrio anguillarum strain NA8347, Mueller-Hinton agar
[20] = Vibrio anguillarum strain NH8410, Mueller-Hinton agar
[21] = Aeromonas hydrophila strain C 44, Mueller-Hinton agar, 25-30 °C, read-out: MIC (minimum growth-inhibition concentration)
[22] = Aeromonas hydrophila strain KA8301, Mueller-Hinton agar, 25-30 °C, read-out: MIC (minimum growth-inhibition concentration)
[23] = Aeromonas hydrophila strain KA8414, Mueller-Hinton agar, 25-30 °C, read-out: MIC (minimum growth-inhibition concentration)
[24] = Aeromonas hydrophila strain KA8416, Mueller-Hinton agar, 25-30 °C, read-out: MIC (minimum growth-inhibition concentration)
[25] = Aeromonas hydrophila strain M 183, Mueller-Hinton agar, 25-30 °C, read-out: MIC (minimum growth-inhibition concentration)
[26] = Pasteurella piscicida strain EH8304, Mueller-Hinton agar, 25-30 °C, read-out: MIC (minimum growth-inhibition concentration)
[27] = Pasteurella piscicida strain EH8309, Mueller-Hinton agar, 25-30 °C, read-out: MIC (minimum growth-inhibition concentration)
[28] = Pasteurella piscicida strain EH8312, Mueller-Hinton agar, 25-30 °C, read-out: MIC (minimum growth-inhibition concentration)
[29] = Pasteurella piscicida strain EH8313, Mueller-Hinton agar, 25-30 °C, read-out: MIC (minimum growth-inhibition concentration)
[30] = Pasteurella piscicida strain NG8319, Mueller-Hinton agar, 25-30 °C, read-out: MIC (minimum growth-inhibition concentration)

Structure (SMILES) | MIC (minimum growth-inhibition concentration) (Vibrio anguillarum; [1]) [µg/mL] | MIC (minimum growth-inhibition concentration) (Vibrio anguillarum; [2]) [µg/mL] | MIC (minimum growth-inhibition concentration) (Vibrio anguillarum; [3]) [µg/mL] | MIC (minimum growth-inhibition concentration) (Vibrio anguillarum; [4]) [µg/mL] | MIC (minimum growth-inhibition concentration) (Vibrio anguillarum; [5]) [µg/mL] | MIC (minimum growth-inhibition concentration) (Aeromonas hydrophila; [6]) [µg/mL] | MIC (minimum growth-inhibition concentration) (Aeromonas hydrophila; [7]) [µg/mL] | MIC (minimum growth-inhibition concentration) (Aeromonas hydrophila; [8]) [µg/mL] | MIC (minimum growth-inhibition concentration) (Aeromonas hydrophila; [9]) [µg/mL] | MIC (minimum growth-inhibition concentration) (Aeromonas hydrophila; [10]) [µg/mL] | MIC (minimum growth-inhibition concentration) (Pasteurella piscicida; [11]) [µg/mL] | MIC (minimum growth-inhibition concentration) (Pasteurella piscicida; [12]) [µg/mL] | MIC (minimum growth-inhibition concentration) (Pasteurella piscicida; [13]) [µg/mL] | MIC (minimum growth-inhibition concentration) (Pasteurella piscicida; [15]) [µg/mL] | MIC (Vibrio anguillarum; [16]) [µg/mL] | MIC (Vibrio anguillarum; [17]) [µg/mL] | MIC (Vibrio anguillarum; [18]) [µg/mL] | MIC (Vibrio anguillarum; [19]) [µg/mL] | MIC (Vibrio anguillarum; [20]) [µg/mL] | MIC (Aeromonas hydrophila; [21]) [µg/mL] | further results
CCN1CCN(c2cc3c(cc2F)c(=O)c(C(=O)O)cn3C2CC2)CC1 [Compound G, embonate of 1-cyclopropyl-6-fluoro-1,4-dihydro-4-oxo-7-(4-ethylpiperazino)-quinoline-3-carboxylic acid] | 0.05 (≈ 0.139 µM) | 0.05 (≈ 0.139 µM) | 0.05 (≈ 0.139 µM) | 0.05 (≈ 0.139 µM) | 0.05 (≈ 0.139 µM) | 0.05 (≈ 0.139 µM) | 0.05 (≈ 0.139 µM) | 0.05 (≈ 0.139 µM) | 0.05 (≈ 0.139 µM) | 0.05 (≈ 0.139 µM) | 0.1 (≈ 0.278 µM) | 0.1 (≈ 0.278 µM) | 0.05 (≈ 0.139 µM) | 0.01 (≈ 0.0278 µM) | – | – | – | – | – | – | MIC (minimum growth-inhibition concentration) (Pasteurella piscicida; [14]): 0.05 µg/mL (≈ 0.139 µM)
CCOC(=O)c1cn(C2CC2)c2cc(N3CCN(CC)CC3)c(F)cc2c1=O [Compound H, ethyl 1-cyclopropyl-6-fluoro-1,4-dihydro-4-oxo-7-(4-ethylpiperazino)-quinoline-3-carboxylate] | – | – | – | – | – | – | – | – | – | – | – | – | – | – | 25 (≈ 64.5 µM) | 25 (≈ 64.5 µM) | 12.5 (≈ 32.3 µM) | 12.5 (≈ 32.3 µM) | 12.5 (≈ 32.3 µM) | 50 (≈ 129 µM) | MIC (Aeromonas hydrophila; [22]): 12.5 µg/mL (≈ 32.3 µM); MIC (Aeromonas hydrophila; [23]): 25 µg/mL (≈ 64.5 µM); MIC (Aeromonas hydrophila; [24]): 12.5 µg/mL (≈ 32.3 µM); MIC (Aeromonas hydrophila; [25]): 12.5 µg/mL (≈ 32.3 µM); MIC (Pasteurella piscicida; [26]): 25 µg/mL (≈ 64.5 µM); MIC (Pasteurella piscicida; [27]): 25 µg/mL (≈ 64.5 µM); MIC (Pasteurella piscicida; [28]): 12.5 µg/mL (≈ 32.3 µM); MIC (Pasteurella piscicida; [29]): 12.5 µg/mL (≈ 32.3 µM); MIC (Pasteurella piscicida; [30]): 25 µg/mL (≈ 64.5 µM)
O=C(O)c1cn(C2CC2)c2cc(N3CCNCC3)c(F)cc2c1=O [Compound A, hydrochloride of 1-cyclopropyl-6-fluoro-1,4-dihydro-4-oxo-7-piperazino-quinoline-3-carboxylic acid] | – | – | – | – | – | – | – | – | – | – | – | – | – | – | < 0.025 | < 0.025 | < 0.025 | < 0.025 | < 0.025 | – | MIC (Aeromonas hydrophila; read-out: MIC (minimum growth-inhibition concentration), Aeromonas hydrophila strain C 44, Mueller-Hinton agar, 25-30 °C): < 0.025 µg/mL; MIC (Aeromonas hydrophila; read-out: MIC (minimum growth-inhibition concentration), Aeromonas hydrophila strain KA8301, Mueller-Hinton agar, 25-30 °C): < 0.025 µg/mL; MIC (Aeromonas hydrophila; read-out: MIC (minimum growth-inhibition concentration), Aeromonas hydrophila strain KA8414, Mueller-Hinton agar, 25-30 °C): < 0.025 µg/mL; MIC (Aeromonas hydrophila; read-out: MIC (minimum growth-inhibition concentration), Aeromonas hydrophila strain KA8416, Mueller-Hinton agar, 25-30 °C): < 0.025 µg/mL; MIC (Aeromonas hydrophila; read-out: MIC (minimum growth-inhibition concentration), Aeromonas hydrophila strain M 183, Mueller-Hinton agar, 25-30 °C): < 0.025 µg/mL; MIC (Pasteurella piscicida; read-out: MIC (minimum growth-inhibition concentration), Pasteurella piscicida strain EH8304, Mueller-Hinton agar, 25-30 °C): 0.05 µg/mL; MIC (Pasteurella piscicida; read-out: MIC (minimum growth-inhibition concentration), Pasteurella piscicida strain EH8309, Mueller-Hinton agar, 25-30 °C): < 0.025 µg/mL; MIC (Pasteurella piscicida; read-out: MIC (minimum growth-inhibition concentration), Pasteurella piscicida strain EH8312, Mueller-Hinton agar, 25-30 °C): 0.05 µg/mL; MIC (Pasteurella piscicida; read-out: MIC (minimum growth-inhibition concentration), Pasteurella piscicida strain NG8319, Mueller-Hinton agar, 25-30 °C): < 0.025 µg/mL
O=C(O)c1cn(C2CC2)c2cc(N3CCNCC3)c(F)cc2c1=O [Compound B, monohydrate of hydrochloride of 1-cyclopropyl-6-fluoro-1,4-dihydro-4-oxo-7-piperazino-quinoline-3-carboxylic acid] | 0.025 | 0.025 | 0.025 | 0.025 | 0.025 | < 0.0125 | < 0.0125 | < 0.0125 | < 0.0125 | < 0.0125 | 0.025 | < 0.0125 | 0.025 | 0.025 | – | – | – | – | – | – | MIC (Pasteurella piscicida; read-out: MIC (minimum growth-inhibition concentration), Pasteurella piscicida strain EH8313, Mueller-Hinton agar, 25-30 °C): 0.025 µg/mL
CCN1CCN(c2cc3c(cc2F)c(=O)c(C(=O)O)cn3C2CC2)CC1 [Compound E, dihydrate of hydrochloride of 1-cyclopropyl-6-fluoro-1,4-dihydro-4-oxo-7-(4-ethylpiperazino)-quinoline-3-carboxylic acid] | 0.05 | 0.05 | 0.05 | 0.05 | 0.05 | < 0.025 | 0.05 | < 0.025 | < 0.025 | < 0.025 | 0.05 | 0.05 | 0.05 | 0.05 | – | – | – | – | – | – | MIC (minimum growth-inhibition concentration) (Pasteurella piscicida; [14]): 0.05 µg/mL
CN1CCN(c2cc3c(cc2F)c(=O)c(C(=O)O)cn3C2CC2)CC1 [Compound C, hydrochloride of 1-cyclopropyl-6-fluoro-1,4-dihydro-4-oxo-7-(4-methylpiperazino)quinoline-3-carboxylic acid] | – | – | – | – | – | – | – | – | – | – | – | – | – | – | < 0.025 | < 0.025 | < 0.025 | < 0.025 | < 0.025 | < 0.025 | MIC (Aeromonas hydrophila; [22]): < 0.025 µg/mL; MIC (Aeromonas hydrophila; [23]): < 0.025 µg/mL; MIC (Aeromonas hydrophila; [24]): < 0.025 µg/mL; MIC (Aeromonas hydrophila; [25]): < 0.025 µg/mL; MIC (Pasteurella piscicida; [26]): 0.05 µg/mL; MIC (Pasteurella piscicida; [27]): 0.05 µg/mL; MIC (Pasteurella piscicida; [28]): 0.05 µg/mL; MIC (Pasteurella piscicida; [29]): 0.05 µg/mL; MIC (Pasteurella piscicida; [30]): 0.05 µg/mL
O=C(O)c1cn(C2CC2)c2cc(N3CCN(CCO)CC3)c(F)cc2c1=O [Compound F, hydrochloride of 1-cyclopropyl-6-fluoro-1,4-dihydro-4-oxo-7-(4-β-hydroxyethyl-piperazino)-quinoline-3-carboxylic acid] | – | – | – | – | – | – | – | – | – | – | – | – | – | – | 0.1 | 0.1 | 0.1 | 0.05 | 0.1 | < 0.025 | MIC (Aeromonas hydrophila; [22]): 0.05 µg/mL; MIC (Aeromonas hydrophila; [23]): < 0.025 µg/mL; MIC (Aeromonas hydrophila; [24]): < 0.025 µg/mL; MIC (Aeromonas hydrophila; [25]): < 0.025 µg/mL; MIC (Pasteurella piscicida; [26]): 0.1 µg/mL; MIC (Pasteurella piscicida; [27]): 0.1 µg/mL; MIC (Pasteurella piscicida; [28]): 0.1 µg/mL; MIC (Pasteurella piscicida; [29]): 0.1 µg/mL; MIC (Pasteurella piscicida; [30]): 0.1 µg/mL
